Experimental data from patent US10301272B2, “Carboxamide or sulfonamide substituted thiazoles and related derivatives as modulators for the orphan nuclear receptor ROR[γ]” (Phenex Pharmaceuticals AG, priority 2012, dated 2019).
Where two headings read alike, the source gives them in different places.

Legend:
RORγ = RORγ (Homo sapiens, UniProt P51449); experiment: RORγ Gal4 Reporter Gene Assay; type: cell-based
In short: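 Cells at 5×10^5/well were transfected with RORγ fragments fused to the GAL4 DNA-binding domain (CMV promoter), a 5×GAL4-site firefly luciferase reporter and CMV-Renilla luciferase for normalization. About 4 h later serum-free MEM and compound were added (vehicle ≤0.1%). Cultures at 37 °C, 5% CO2; at least triplicates.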

[1] = molecular target: RORγ ligand binding domain (LBD) (Homo sapiens (Human), UniProt P51449); experiment: TR-FRET Activity Assay (ligand sensing assay, LANCE); details: for pIC50 (FRET): TR-FRET, interaction of RORγ-LBD with coactivator peptide
Chain of RORγ ligand binding domain (LBD) (P51449 269-508): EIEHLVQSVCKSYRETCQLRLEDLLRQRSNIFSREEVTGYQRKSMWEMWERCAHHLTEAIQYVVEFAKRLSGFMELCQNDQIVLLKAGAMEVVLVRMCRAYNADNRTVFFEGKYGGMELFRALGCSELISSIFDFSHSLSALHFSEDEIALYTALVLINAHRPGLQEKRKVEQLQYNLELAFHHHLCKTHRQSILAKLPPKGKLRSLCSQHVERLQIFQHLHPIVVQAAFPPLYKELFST

[2] = firefly (FF) luciferase, 293T cells, read-out: pIC50 (FF) (converted)
[3] = renilla normalised (RENnorm) luciferase, 293T cells, read-out: pIC50 (REN) (converted)
[4] = firefly (FF) luciferase, 293T cells
[5] = renilla normalised (RENnorm) luciferase, 293T cells

Chain of RORγ (P51449 whole entry, looked up, the tested form may be a part): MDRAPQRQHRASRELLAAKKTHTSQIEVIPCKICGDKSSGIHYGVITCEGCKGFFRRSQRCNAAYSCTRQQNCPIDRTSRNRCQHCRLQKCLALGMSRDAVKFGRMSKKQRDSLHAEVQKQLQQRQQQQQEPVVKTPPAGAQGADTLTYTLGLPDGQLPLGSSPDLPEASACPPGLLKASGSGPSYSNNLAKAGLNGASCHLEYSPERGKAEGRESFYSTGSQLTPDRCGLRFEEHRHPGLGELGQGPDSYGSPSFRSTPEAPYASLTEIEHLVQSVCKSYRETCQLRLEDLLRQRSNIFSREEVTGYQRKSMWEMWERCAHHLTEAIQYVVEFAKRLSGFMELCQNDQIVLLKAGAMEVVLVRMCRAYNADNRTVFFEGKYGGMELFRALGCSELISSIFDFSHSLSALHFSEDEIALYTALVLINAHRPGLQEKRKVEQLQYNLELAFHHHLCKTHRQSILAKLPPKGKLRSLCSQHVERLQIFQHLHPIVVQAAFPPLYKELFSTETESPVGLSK

Compound | pIC50 (FF) (RORγ) | pIC50 (REN) (RORγ) | pIC50 (FRET) [1] | IC50 (RORγ; [2]) | IC50 (RORγ; [3]) | IC50 [1] | pIC50 (FF) (RORγ; [4]) | pIC50 (REN) (RORγ; [5])
CC(C)(C)NS(=O)(=O)c1ccc(-c2oc(C(=O)NCC3(O)CCS(=O)(=O)CC3)nc2CC2CCCCC2)c2ccccc12 [100/8] | 6.5/8.0/8.2 | 6.5/8.0/8.2 | 6.5/8.0/8.2 | – | – | – | – | –
CC(C)(C)c1cc(-c2sc(S(N)(=O)=O)nc2CC2CCCCC2)cc(C(C)(C)C)c1 [Example 4, 4-(Cyclohexylmethyl)-5-(3,5-di-tert-butylphenyl)thiazole-2-sulfonamide] | 6.8/6.4/6.4 | 6.8/6.4/6.4 | 6.8/6.4/6.4 | – | – | – | – | –
CC(C)(C)NS(=O)(=O)c1ccc(-c2sc(C(=O)NC3C[S+]([O-])C3)nc2CC2CCCCC2)cc1C(C)(C)O (centres unmarked) [Example 15/1] | 6.7/8.0/8.0 | 6.7/8.0/8.0 | 6.7/8.0/8.0 | – | – | – | – | –
COc1ccc(-c2sc(C(=O)N[C@H]3C[C@H](C(=O)O)C3)nc2CC2CCCCC2)c2ccccc12 [7/20] | – | – | – | 251 nM | 251 nM | > 20000 nM | – | –
CC(C)(C)NS(=O)(=O)c1ccc(-c2sc(C(=O)NC3CCS(=O)(=O)CC3)nc2CC2CC2)c(Cl)c1Cl [6/35] | 7.0/7.5/7.5 | 7.0/7.5/7.5 | 7.0/7.5/7.5 | – | – | – | – | –
CC(C)(C)NS(=O)(=O)c1ccc(-c2sc(C(=O)NCCN3CCOCC3)nc2CC2CCCCC2)cc1C(C)(C)O [6/25] | 5.8/6.7/6.7 | 5.8/6.7/6.7 | 5.8/6.7/6.7 | – | – | – | – | –
CC(C)(C)NS(=O)(=O)c1ccc(-c2sc(C(=O)NN3CCOCC3)nc2CC2CCCCC2)c(Cl)c1Cl [6/20] | 6.9/8.7/8.7 | 6.9/8.7/8.7 | 6.9 | – | – | – | – | –
CC(C)(O)CNC(=O)c1nc(CC2CCC2)c(-c2ccc(S(=O)(=O)NC(C)(C)C)c(Cl)c2Cl)s1 [Example 21, 5-(4-(N-(tert-butyl)sulfamoyl)-2,3-dichlorophenyl)-4-(cyclobutylmethyl)-N-(2-hydroxy-2-methylpropyl)thiazole-2-carboxamide] | 7.0/8.1/8.2 | 7.0/8.1/8.2 | 7.0/8.1/8.2 | – | – | – | – | –
CC(C)(C)c1cc(-c2nc(C(=O)NC3COC3)ncc2CC2CCCCC2)cc(C(C)(C)C)c1 [Example 207, 5-(Cyclohexylmethyl)-4-(3,5-di-tert-butylphenyl)-N-(oxetan-3-yl)pyrimidine-2-carboxamide] | 5.4/6.4/6.5 | 5.4/6.4/6.5 | 5.4/6.4/6.5 | – | – | – | – | –
CC(C)(C)NS(=O)(=O)c1ccc(-c2sc(C(=O)N[C@H]3C[C@H](C(=O)O)C3)nc2CC2CCCCC2)c2c(F)cccc12 [19/9] | 6.3/7.0/7.1 | 6.3/7.0/7.1 | 6.3/7.0/7.1 | – | – | – | – | –
CC(C)(C)NS(=O)(=O)c1ccc(-c2sc(S(N)(=O)=O)nc2CC2CCCCC2)cc1C(C)(C)C [Example 13/1] | 6.3/6.6/6.6 | 6.3/6.6/6.6 | 6.3/6.6/6.6 | – | – | – | – | –
CC(C)(C)c1cc(-c2sc(C(=O)N[C@H]3C[C@H](C(=O)O)C3)nc2CC2CCCCC2)cc(C(C)(C)O)c1 [Example 23, (trans)-3-(5-(3-(tert-Butyl)-5-(2-hydroxypropan-2-yl)phenyl)-4-(cyclohexylmethyl)-thiazole-2-carboxamido)cyclobutanecarboxylic acid] | – | – | – | – | – | 631 nM | 8.2 | –
CC(C)(C)NS(=O)(=O)c1ccc(-c2sc(C(=O)NCC3(C(=O)O)CCOCC3)nc2CC2CCCCC2)c(Cl)c1Cl [6/36] | 6.3/7.4/7.4 | 6.3/7.4/7.4 | 6.3/7.4/7.4 | – | – | – | – | –
N#CC1(NS(=O)(=O)c2ccc(-c3sc(C(=O)N4CC5(CCS(=O)(=O)CC5)C4)nc3CC3CCCCC3)c3ccccc23)CC1 [Example 14, N-(1-Cyanocyclopropyl)-4-(4-(cyclohexylmethyl)-2-(7,7-dioxido-7-thia-2-azaspiro[3.5]nonane-2-carbonyl)thiazol-5-yl)naphthalene-1-sulfonamide] | 6.7/7.6/7.7 | 6.7/7.6/7.7 | 6.7/7.6/7.7 | – | – | – | – | –
CC(C)(CNC(=O)c1nc(CC2CCCCC2)c(-c2cc(C(C)(C)C)cc(C3(C)CC3)c2)o1)C(=O)O [100/19] | 5.9/6.6/6.6 | 5.9/6.6/6.6 | 5.9/6.6/6.6 | – | – | – | – | –
COC(c1nc(C(=O)N[C@H]2C[C@H](C(=O)O)C2)sc1-c1ccc(S(=O)(=O)NC(C)(C)C)c(Cl)c1Cl)C1CCCCC1 (some centres unmarked) [19/4] | 6.0/7.3/7.2 | 6.0/7.3/7.2 | 6.0/7.3/7.2 | – | – | – | – | –
CC(C)(C)NS(=O)(=O)c1ccc(-c2sc(C(=O)NN3CCS(=O)(=O)CC3)nc2CC2CCCCC2)c(Cl)c1Cl [6/21] | 6.8/8.7/8.7 | 6.8/8.7/8.7 | 6.8/8.7/8.7 | – | – | – | – | –
CC(C)(C)NS(=O)(=O)c1ccc(-c2oc(C(=O)NC3CCS(=O)(=O)CC3)nc2CC2CCC2)c2ccccc12 [Example 104, 5-(4-(N-(tert-Butyl)sulfamoyl)naphthalen-1-yl)-4-(cyclobutylmethyl)-N-(1,1-dioxidotetrahydro-2H-thiopyran-4-yl)oxazole-2-carboxamide] | 6.6/7.5/7.9 | 6.6/7.5/7.9 | 6.6/7.5/7.9 | – | – | – | – | –

Compound | pIC50 (FF) (RORγ) | pIC50 (REN) (RORγ) | pIC50 (FRET) [1] | IC50 (RORγ; [2]) | IC50 (RORγ; [3]) | IC50 [1] | pIC50 (FF) (RORγ; [4]) | pIC50 (REN) (RORγ; [5])
CC(C)COc1cc(-c2sc(C(=O)N[C@H]3C[C@H](C(=O)O)C3)nc2CC2CCCCC2)cc(C(C)(C)C)n1 [7/11] | 5.9/7.4/7.4 | 5.9/7.4/7.4 | 5.9/7.4/7.4 | – | – | – | – | –
CC(C)(C)c1cc(-c2sc(C(=O)NC3CC(C(=O)O)C3)nc2CC2CCCCC2)nc(C2(C)CC2)n1 (centres unmarked) [19/12] | – | – | 6.1 | – | – | – | 6.8 | 6.7
O=C(N[C@H]1C[C@H](C(=O)O)C1)c1nc(CC2CCCCC2)c(-c2ccc(OC(F)(F)F)c3ccccc23)s1 [7/21] | – | – | – | 126 nM | 126 nM | 2000 nM | – | –
CC(C)(C)NS(=O)(=O)c1ccc(-c2sc(C(=O)N3CC(C(C)(C)C(=O)O)C3)nc2CC2CCCCC2)c(Cl)c1Cl [6/37] | 6.1/6.9/6.9 | 6.1/6.9/6.9 | 6.1 | – | – | – | – | –
CC(C)(C)c1cc(-c2sc(C(=O)N[C@H]3C[C@H](C(=O)O)C3)nc2CC2CCCCC2)cc(C(C)(C)O)n1 [8/10] | – | – | – | 158 nM | 158 nM | 631 nM | – | –
CC(C)(O)c1cc(-c2sc(C(=O)N[C@H]3C[C@H](C(=O)O)C3)nc2CC2CCCCC2)cc(C2(C)CC2)c1 [9/4] | 6.5/7.1/7.1 | 6.5/7.1/7.1 | 6.5/7.1/7.1 | – | – | – | – | –
CC(C)(C)NS(=O)(=O)c1ccc(-c2sc(C(=O)NC3CCC3)[n+]([O-])c2CC2CCCCC2)c2ccccc12 [Example 22/1] | – | – | 6.4 | – | – | – | 7.5 | 7.5
CC(C)(C)c1cc(-c2sc(C(=O)N[C@H]3C[C@H](C(=O)O)C3)nc2CC2CCCCC2)cc(C(F)F)c1 [7/5] | 6.3/7.0/7.1 | 6.3/7.0/7.1 | 6.3/7.0/7.1 | – | – | – | – | –
CC(C)(C)NS(=O)(=O)c1ccc(-c2sc(C(=O)N3CC4(CSC4)C3)nc2CC2CCCCC2)c(Cl)c1Cl [6/32] | 6.9/8.0/8.2 | 6.9/8.0/8.2 | 6.9/8.0/8.2 | – | – | – | – | –
CC(C)(C)NS(=O)(=O)c1ccc(-c2oc(C(=O)NC34CCC(C(=O)O)(CC3)C4)nc2CC2CCCCC2)c2ccccc12 [100/23] | 6.1/8.3/8.4 | 6.1/8.3/8.4 | 6.1/8.3/8.4 | – | – | – | – | –
CC(C)(C)NS(=O)(=O)c1ccc(-c2sc(C(=O)N[C@H]3C[C@H](C(=O)O)C3)nc2CC2CCCCC2)cc1C(C)(C)C [7/2] | 6.2/7.5/7.6 | 6.2/7.5/7.6 | 6.2/7.5/7.6 | – | – | – | – | –
COC(c1nc(C(=O)NC2CCOCC2)sc1-c1ccc(S(=O)(=O)NC(C)(C)C)c(C(C)(C)C)c1)C1CCCCC1 (centres unmarked) [Example 19/1] | 6.1/6.7/6.7 | 6.1/6.7/6.7 | 6.1/6.7/6.7 | – | – | – | – | –
Cc1c(C(=O)NC(C)(C)C)cc(-c2sc(C(=O)N[C@H]3C[C@H](C(=O)O)C3)nc2CC2CCCCC2)cc1C1(C)CC1 [19/7] | 5.8/6.8/6.8 | 5.8/6.8/6.8 | 5.8/6.8/6.8 | – | – | – | – | –
CC(C)(C)NS(=O)(=O)c1ccc(-c2sc(C(=O)NCC3(C(N)=O)CCOCC3)nc2CC2CCCCC2)cc1C(C)(C)C [Example 6/1] | 6.5/7.5/7.7 | 6.5/7.5/7.7 | 6.5/7.5/7.7 | – | – | – | – | –
CC(C)(C)NS(=O)(=O)c1ccc(-c2sc(C(=O)N[C@H]3C[C@H](C(=O)O)C3)nc2CC2CCCCC2)c(C(F)F)c1Cl [7/16] | 6.5/8.5/8.5 | 6.5/8.5/8.5 | 6.5/8.5/8.5 | – | – | – | – | –
CC(C)(C)NS(=O)(=O)c1ccc(-c2oc(C(=O)NC3CCOCC3)nc2CC2CCCCC2)cc1C(C)(C)C [Example 100/1] | 5.9/6.3/6.3 | 5.9/6.3/6.3 | 5.9/6.3/6.3 | – | – | – | – | –
CC(C)(C)NS(=O)(=O)c1ccc(-c2sc(C(=O)NCC(C)(C)C(=O)O)nc2CC2CCCCC2)cc1C(F)(F)F [9/3] | 6.4/7.2/7.4 | 6.4/7.2/7.4 | 6.4/7.2/7.4 | – | – | – | – | –
CC(C)(O)CNC(=O)c1nc(CC2CCCCC2)c(-c2ncc(S(=O)(=O)NC(C)(C)C)c3ccccc23)s1 [19/6] | 6.4/7.7/7.7 | 6.4/7.7/7.7 | 6.4/7.7/7.7 | – | – | – | – | –
